Active and inactive are the calls of the source.
Experiments:
[1] = target: T1, RNA-binding protein pos-1 (Caenorhabditis elegans, UniProt G5EF15); test: disruptors of C. elegans POS-1 RNA interaction – biochemical, fluorescence polarization, dose response (AID 1964);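 further: purified POS-1 fused to maltose binding protein made in E. coli; potency of compounds blocking POS-1 binding to fluorescent RNA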
T1 sequence (G5EF15 whole entry): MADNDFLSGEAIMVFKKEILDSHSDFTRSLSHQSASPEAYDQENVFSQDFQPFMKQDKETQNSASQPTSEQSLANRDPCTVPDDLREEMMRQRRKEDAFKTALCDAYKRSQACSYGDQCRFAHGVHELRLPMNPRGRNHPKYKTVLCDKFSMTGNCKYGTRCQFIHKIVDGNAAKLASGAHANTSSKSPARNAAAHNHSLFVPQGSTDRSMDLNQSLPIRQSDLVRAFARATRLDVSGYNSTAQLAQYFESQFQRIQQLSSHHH

[2] = target: T2, Zinc finger protein mex-5 (Caenorhabditis elegans, UniProt Q9XUB2); test: potency of MEX-5 RNA-binding blockers – biochemical, C. elegans, fluorescence polarization, dose response (AID 1960)
T2 sequence (Q9XUB2 whole entry): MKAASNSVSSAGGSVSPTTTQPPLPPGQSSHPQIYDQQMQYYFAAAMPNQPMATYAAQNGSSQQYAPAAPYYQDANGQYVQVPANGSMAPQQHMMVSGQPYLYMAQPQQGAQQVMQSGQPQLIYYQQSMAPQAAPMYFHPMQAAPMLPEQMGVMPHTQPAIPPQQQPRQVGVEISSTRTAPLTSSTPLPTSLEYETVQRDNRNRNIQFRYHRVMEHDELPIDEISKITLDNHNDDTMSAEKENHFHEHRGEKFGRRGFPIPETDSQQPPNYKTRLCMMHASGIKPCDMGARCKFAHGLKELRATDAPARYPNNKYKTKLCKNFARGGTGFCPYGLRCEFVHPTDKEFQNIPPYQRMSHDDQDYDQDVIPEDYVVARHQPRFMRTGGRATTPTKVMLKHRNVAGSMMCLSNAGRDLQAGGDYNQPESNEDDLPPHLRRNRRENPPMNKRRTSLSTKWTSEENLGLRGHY

Ephrin type-A receptor 4 = Ephrin type-A receptor 4 (Mus musculus, UniProt Q03137); test: EphA4 ligand-binding antagonists – biochemical, colorimetric, mouse EphA4, primary screen (AID 689); format: functional
ORF 73 = ORF 73 (Human herpesvirus 8, UniProt O40947); test: KSHV LANA DNA-binding disruption – biochemical, fluorescence polarization, cherry-picked samples, dose response (AID 504725); parameters: species or system Human gammaherpesvirus 8;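 further: fluorescence polarization of a labeled DNA duplex reporting LANA DNA binding; potency is for inhibitors that block LANA binding to the DNA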
[3] = target: T3, Botulinum neurotoxin type A (Clostridium botulinum (strain Hall / ATCC 3502 / NCTC 13319 / Type A), UniProt P0DPI1); test: High-throughput multiplex microsphere dose response for inhibitors of toxin protease, specifically Botulinum neurotoxin light chain A protease, compounds from Cherry Pick 01.; format: functional; details: read-out: EC50_MICROM
[4] = target: T3, Botulinum neurotoxin type A; test: High-throughput multiplex microsphere dose response for inhibitors of toxin protease, specifically Botulinum neurotoxin light chain A protease, compounds from Powder Set 01.; format: functional, Clostridium botulinum A str. ATCC 3502; details: read-out: EC50_MICROM
[5] = target: Botulinum neurotoxin type F (Clostridium botulinum, UniProt P30996); test: High-throughput multiplex microsphere dose response for inhibitors of toxin protease, specifically Botulinum neurotoxin light chain F protease, compounds from Powder Set 01.; format: functional, Clostridium botulinum Bf; details: read-out: EC50_MICROM
Lethal factor = Lethal factor (Bacillus anthracis, UniProt P15917); test: High-throughput multiplex microsphere dose response for inhibitors of toxin protease, specifically Lethal Factor protease, compounds from Powder Set 01.; format: functional, Bacillus anthracis str. A2012; details: read-out: EC50_MICROM
[6] = target: Voltage-dependent T-type calcium channel subunit alpha-1H (Homo sapiens, UniProt O95180); test: human CACNA1H calcium influx blockade – cell-based, synthetic library set 1, calcium flux (AID 493022); format: functional
Mu-type opioid receptor = Mu-type opioid receptor (Homo sapiens, UniProt P35372); test: SAR Analysis of Antagonists of the MOR Receptor using an Image-Based Assay - Set 3. [Related pubchem assays (depositor defined):AID1777, AID1785, AID1786, AID1966, AID2133, AID2136, AID2284, AID2285, AID2420]; format: functional
[7] = target: T4, Kappa-type opioid receptor (Homo sapiens, UniProt P41145); test: SAR analysis of small molecule antagonists of the kappa opioid receptor via a luminescent beta-arrestin assay - Set 6. [Related pubchem assays (depositor defined):AID1777, AID1778, AID1785, AID1786, AID1966, AID2133, AID2136, AID2285]; format: functional
[8] = target: T4, Kappa-type opioid receptor; test: SAR analysis of small molecule antagonists of the kappa opioid receptor via a luminescent beta-arrestin assay - Set 4. [Related pubchem assays (depositor defined):AID1777, AID1778, AID1785, AID1786, AID1966, AID2133, AID2136, AID2285]; format: functional
[9] = target: Delta-type opioid receptor (Homo sapiens, UniProt P41143); test: SAR Analysis of Antagonists of the DOR Receptor using an Image-Based Assay - Set 3. [Related pubchem assays (depositor defined):AID1777, AID1785]; format: functional;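 further: U2OS cells expressing DOR1 and beta-arrestin GFP stimulated with 100 nM SNC80; imaging of GFP-tagged beta-arrestin moving into spots after receptor activation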
[10] = target: T4, Kappa-type opioid receptor; test: SAR analysis of Antagonists of the Kappa Opioid Receptor (KOR) using an Image-Based Assay - Set 4. [Related pubchem assays (depositor defined):AID1777, AID1785]; format: functional
[11] = luciferase reporter signal suppression in cells – H4 neuroglioma cells, luminescence, dose response (AID 1990); format: functional, cell-based
[12] = luciferase reporter signal reduction – luminescence, H4-C neuroglioblastoma cells, dose response (AID 2458); format: functional, cell-based;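 further: H4 neuroglioblastoma cells stably carrying a luciferase reporter gene fusion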
BJ [13] = test: BJ-TERT fibroblast viability loss – cell-based, RAS-independent, luminescence, dose response (AID 1933); format: functional; details: Homo sapiens
cells [14] = format: functional, cell-based
[15] = alpha-synuclein stem-loop luciferase translation blockers – H4 neuroglioma cells, luminescence, confirmation (AID 1988); format: functional, cell-based
BJ [16] = test: cells; format: functional, cell-based; details: Homo sapiens
J774.A1 = test: Confirmation of image-based Screening Assay for Inhibitors of Phagocytosis. [Related pubchem assays (depositor defined):AID1029, AID1643]; format: functional, cell-based; details: Mus musculus
BJ [17] = test: BJ-TERT-LT-ST fibroblast viability loss – cell-based, RAS-independent, luminescence, dose response (AID 1935); format: functional; details: Homo sapiens;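 further: BJ fibroblasts immortalized with TERT plus LT and ST oncogenes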
[18] = DRD fibroblast viability loss – cell-based, non-viral oncogenic, luminescence, dose response (AID 1934); format: functional; details: Homo sapiens
[19] = alpha-synuclein stem-loop translation blockers – luminescence, H4 neuroglioblastoma cells, dose confirmation, confirmation (AID 2454); format: functional, cell-based;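 further: H4 neuroglioblastoma cells carrying an alpha-synuclein 5'UTR luciferase reporter; potency for inhibition of the luciferase signal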
[20] = target: 1-acylglycerol-3-phosphate O-acyltransferase ABHD5/Perilipin-5 (Homo sapiens, UniProt Q00G26+Q8WTS1); test: Luminescence-based biochemical high throughput dose response assay for inhibitors of the interaction of the lipase co-activator protein, abhydrolase domain containing 5 (ABHD5) with perilipin-5 (MLDP; PLIN5) (2K validation set). [Related pubchem assays (depositor defined):AID493035, AID493241]
Perilipin-1/ABHD5 = Perilipin-1/ABHD5 (Homo sapiens, UniProt O60240+Q8WTS1); test: Luminescence-based biochemical high throughput dose response assay for inhibitors of the interaction of the lipase co-activator protein, abhydrolase domain containing 5 (ABHD5) with perilipin-1 (PLIN1) (2K validation set). [Related pubchem assays (depositor defined):AID493027, AID493057]
Genome polyprotein = Genome polyprotein (dengue virus type 2, UniProt P29990); test: flavivirus cap methylation enzyme inhibition – biochemical, confirmation dose response, primary screen (AID 588689); format: functional
[21] = tested on: Streptococcus sp. 'group A'; test: Streptococcus pyogenes SK(-)GAS viability under kanamycin – luminescence, BacTiterGlo, confirmation, counter-screen for streptokinase expression inhibitor project, dose response (AID 1900); format: functional, organism-based
Streptococcus = test: GAS UMAA2166 growth inhibition – luminescence, BacTiterGlo, counter-screen for streptokinase expression inhibitor project, dose response (AID 1915); format: functional, organism-based;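 further: potency for reduction of bacterial viability or growth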
[22] = THP-1 cell cytotoxicity, dose response, cytotoxicity control for non-replicating M. tuberculosis project (AID 489025); format: functional
[23] = Luminescence Cell-Based Dose Retest to Confirm Inhibitors of Cancer Stem Cells. [Related pubchem assays (depositor defined):AID2717, AID2721]; format: functional; details: Homo sapiens
[24] = HepG2 cell cytotoxicity, dose response, cytotoxicity control for non-replicating M. tuberculosis project (AID 489018); format: functional; details: Mycobacterium tuberculosis
[25] = target: C-C chemokine receptor type 6 (Homo sapiens, UniProt P51684); test: antagonism of CCR6 beta-arrestin recruitment – cell-based, luminescent beta-arrestin readout, dose response (AID 504728); format: functional
Beta-galactosidase = Beta-galactosidase (Escherichia coli, UniProt Q8VNN2); test: detection-enzyme interference by beta-gal modulators – biochemical, E. coli enzyme, set 3, artefact control for CCR6 antagonist project, dose response (AID 504712); format: functional
[26] = Vero E6 cell cytotoxicity, dose response, cytotoxicity control for non-replicating M. tuberculosis project, secondary assay (AID 492998); format: functional, VeroE6; details: Vero C1008
cells [27] = format: functional

T4 sequence (P41145 whole entry): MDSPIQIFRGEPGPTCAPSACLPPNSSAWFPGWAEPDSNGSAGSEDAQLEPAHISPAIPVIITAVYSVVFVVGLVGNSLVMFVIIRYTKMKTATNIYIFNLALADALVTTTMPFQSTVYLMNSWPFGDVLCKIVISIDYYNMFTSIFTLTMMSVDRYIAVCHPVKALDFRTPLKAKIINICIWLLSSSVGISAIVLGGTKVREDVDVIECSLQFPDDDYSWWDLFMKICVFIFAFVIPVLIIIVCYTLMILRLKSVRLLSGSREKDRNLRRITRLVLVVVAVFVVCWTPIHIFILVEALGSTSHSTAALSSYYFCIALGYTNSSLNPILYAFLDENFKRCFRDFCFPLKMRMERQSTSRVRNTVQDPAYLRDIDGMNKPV
T3 sequence (P0DPI1 2-448 limits assumed): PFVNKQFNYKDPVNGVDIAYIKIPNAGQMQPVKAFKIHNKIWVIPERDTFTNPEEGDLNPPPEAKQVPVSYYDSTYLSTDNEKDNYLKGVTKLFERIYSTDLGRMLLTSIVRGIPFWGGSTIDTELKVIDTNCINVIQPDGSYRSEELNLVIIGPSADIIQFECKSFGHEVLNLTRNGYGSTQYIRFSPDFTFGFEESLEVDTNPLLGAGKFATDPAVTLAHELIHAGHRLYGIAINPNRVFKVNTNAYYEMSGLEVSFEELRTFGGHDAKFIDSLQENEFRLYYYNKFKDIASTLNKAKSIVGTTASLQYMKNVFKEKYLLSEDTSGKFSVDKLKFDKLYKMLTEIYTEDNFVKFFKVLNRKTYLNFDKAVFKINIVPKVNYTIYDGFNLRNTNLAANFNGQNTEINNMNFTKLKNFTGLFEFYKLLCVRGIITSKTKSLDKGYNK
Chain of C-C chemokine receptor type 6 (P51684 whole entry): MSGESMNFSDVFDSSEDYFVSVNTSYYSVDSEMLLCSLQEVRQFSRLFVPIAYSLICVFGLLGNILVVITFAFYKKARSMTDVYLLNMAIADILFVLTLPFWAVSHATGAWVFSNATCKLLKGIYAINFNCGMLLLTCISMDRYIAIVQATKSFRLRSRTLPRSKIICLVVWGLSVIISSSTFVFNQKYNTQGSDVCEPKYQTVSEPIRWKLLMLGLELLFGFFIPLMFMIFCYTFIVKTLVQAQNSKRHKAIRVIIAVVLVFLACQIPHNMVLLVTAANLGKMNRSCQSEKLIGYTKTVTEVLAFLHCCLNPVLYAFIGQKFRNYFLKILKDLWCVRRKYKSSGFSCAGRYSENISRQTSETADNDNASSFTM
Chain of Voltage-dependent T-type calcium channel subunit alpha-1H (O95180 whole entry): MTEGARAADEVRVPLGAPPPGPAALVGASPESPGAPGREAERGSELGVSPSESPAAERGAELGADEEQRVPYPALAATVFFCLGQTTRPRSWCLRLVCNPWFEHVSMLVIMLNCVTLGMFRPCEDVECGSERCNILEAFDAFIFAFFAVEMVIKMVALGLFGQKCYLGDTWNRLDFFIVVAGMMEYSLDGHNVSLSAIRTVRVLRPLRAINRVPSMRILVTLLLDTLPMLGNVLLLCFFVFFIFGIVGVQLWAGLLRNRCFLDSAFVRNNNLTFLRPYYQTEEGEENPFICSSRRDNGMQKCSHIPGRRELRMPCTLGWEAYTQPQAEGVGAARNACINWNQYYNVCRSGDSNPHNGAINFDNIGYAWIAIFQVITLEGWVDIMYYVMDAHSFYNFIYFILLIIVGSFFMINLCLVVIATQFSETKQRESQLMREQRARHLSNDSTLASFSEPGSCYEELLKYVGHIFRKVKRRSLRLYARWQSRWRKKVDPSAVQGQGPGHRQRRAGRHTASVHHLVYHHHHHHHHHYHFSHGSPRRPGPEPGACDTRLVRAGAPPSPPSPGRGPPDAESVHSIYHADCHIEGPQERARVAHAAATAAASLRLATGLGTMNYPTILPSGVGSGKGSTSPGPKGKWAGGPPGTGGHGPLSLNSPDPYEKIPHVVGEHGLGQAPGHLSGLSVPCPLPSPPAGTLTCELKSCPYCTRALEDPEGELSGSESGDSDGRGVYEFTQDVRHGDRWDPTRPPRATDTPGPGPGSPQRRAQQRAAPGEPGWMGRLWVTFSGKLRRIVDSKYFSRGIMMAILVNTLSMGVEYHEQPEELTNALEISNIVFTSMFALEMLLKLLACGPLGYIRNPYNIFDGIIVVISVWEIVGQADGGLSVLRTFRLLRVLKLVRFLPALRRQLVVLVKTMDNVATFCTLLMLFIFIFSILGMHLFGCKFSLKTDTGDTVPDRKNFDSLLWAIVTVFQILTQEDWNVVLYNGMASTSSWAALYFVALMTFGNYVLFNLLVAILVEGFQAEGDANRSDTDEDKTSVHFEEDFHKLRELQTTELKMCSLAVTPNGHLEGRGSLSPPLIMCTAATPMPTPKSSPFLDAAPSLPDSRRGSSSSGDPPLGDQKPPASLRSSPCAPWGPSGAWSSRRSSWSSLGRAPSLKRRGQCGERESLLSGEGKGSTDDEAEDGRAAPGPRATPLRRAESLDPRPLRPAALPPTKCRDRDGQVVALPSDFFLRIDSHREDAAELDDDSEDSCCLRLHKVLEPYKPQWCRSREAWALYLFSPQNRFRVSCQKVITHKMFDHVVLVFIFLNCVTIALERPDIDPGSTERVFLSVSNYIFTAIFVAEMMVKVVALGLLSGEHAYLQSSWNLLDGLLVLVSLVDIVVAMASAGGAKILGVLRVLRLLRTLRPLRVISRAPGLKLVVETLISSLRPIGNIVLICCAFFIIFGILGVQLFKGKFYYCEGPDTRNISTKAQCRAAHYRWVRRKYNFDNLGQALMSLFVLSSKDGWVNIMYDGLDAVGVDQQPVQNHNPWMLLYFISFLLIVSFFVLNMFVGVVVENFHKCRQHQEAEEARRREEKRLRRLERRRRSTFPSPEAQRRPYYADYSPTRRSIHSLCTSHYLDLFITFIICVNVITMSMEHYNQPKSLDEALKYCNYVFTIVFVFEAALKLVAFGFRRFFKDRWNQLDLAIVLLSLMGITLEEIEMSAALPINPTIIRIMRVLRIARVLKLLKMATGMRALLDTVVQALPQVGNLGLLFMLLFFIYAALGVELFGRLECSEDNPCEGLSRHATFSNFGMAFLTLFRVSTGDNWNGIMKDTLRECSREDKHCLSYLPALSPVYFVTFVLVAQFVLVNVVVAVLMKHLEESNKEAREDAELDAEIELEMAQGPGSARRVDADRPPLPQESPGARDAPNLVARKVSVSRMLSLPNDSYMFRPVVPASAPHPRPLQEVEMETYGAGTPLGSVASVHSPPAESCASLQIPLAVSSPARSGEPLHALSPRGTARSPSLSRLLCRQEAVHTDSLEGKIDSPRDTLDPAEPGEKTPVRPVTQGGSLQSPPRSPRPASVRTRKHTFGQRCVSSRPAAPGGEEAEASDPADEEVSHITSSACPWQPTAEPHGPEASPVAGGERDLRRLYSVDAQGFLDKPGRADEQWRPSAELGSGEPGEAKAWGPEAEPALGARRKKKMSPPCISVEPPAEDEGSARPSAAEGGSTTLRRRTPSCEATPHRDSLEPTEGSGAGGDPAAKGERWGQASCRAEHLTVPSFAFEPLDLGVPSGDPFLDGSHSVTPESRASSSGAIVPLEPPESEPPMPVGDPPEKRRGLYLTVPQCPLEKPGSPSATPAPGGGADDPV
Chain of ORF 73 (O40947 whole entry): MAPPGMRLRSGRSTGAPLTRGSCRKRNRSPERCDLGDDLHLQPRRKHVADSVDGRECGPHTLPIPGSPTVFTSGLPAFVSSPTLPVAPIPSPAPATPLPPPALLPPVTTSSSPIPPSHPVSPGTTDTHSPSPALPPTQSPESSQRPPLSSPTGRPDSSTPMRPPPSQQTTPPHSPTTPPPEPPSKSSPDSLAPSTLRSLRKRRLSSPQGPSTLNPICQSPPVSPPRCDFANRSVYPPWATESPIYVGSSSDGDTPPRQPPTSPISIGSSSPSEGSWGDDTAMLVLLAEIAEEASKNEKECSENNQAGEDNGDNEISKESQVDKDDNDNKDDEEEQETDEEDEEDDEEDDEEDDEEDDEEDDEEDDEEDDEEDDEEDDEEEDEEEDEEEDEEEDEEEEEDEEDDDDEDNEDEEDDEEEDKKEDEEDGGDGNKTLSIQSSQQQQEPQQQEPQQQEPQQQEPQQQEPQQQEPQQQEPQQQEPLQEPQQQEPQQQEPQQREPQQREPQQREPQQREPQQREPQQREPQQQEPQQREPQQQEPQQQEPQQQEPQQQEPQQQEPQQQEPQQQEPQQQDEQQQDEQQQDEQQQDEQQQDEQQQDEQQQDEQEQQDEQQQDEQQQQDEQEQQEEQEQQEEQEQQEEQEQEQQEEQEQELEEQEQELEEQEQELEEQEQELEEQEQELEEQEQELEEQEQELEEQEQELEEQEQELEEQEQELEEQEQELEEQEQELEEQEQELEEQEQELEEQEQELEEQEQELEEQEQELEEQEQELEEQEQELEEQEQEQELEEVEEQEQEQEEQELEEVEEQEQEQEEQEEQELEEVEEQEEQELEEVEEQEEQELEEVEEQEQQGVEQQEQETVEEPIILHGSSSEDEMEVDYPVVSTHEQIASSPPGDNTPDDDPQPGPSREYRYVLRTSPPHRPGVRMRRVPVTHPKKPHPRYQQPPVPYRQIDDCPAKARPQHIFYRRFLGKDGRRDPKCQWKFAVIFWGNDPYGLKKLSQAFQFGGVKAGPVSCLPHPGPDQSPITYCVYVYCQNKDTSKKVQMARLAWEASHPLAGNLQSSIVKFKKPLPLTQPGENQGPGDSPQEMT
Chain of Delta-type opioid receptor (P41143 whole entry): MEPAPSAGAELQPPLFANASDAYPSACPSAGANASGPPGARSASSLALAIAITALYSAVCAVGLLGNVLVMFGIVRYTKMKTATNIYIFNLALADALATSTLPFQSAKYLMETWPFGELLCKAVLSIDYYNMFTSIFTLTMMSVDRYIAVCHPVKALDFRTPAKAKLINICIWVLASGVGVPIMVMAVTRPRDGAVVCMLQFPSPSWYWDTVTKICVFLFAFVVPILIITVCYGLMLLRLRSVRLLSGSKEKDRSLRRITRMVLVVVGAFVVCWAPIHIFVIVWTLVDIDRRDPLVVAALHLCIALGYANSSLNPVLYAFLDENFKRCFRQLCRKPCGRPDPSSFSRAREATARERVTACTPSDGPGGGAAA

In the case of `c1ccc(-c2cn3nc(-c4ccccc4)c(-c4ccccc4)nc3n2)cc1`, the EC50 [1] is reported as 2.82 µM (active), the EC50 [2] is reported as 3.84 µM (active) and the IC50 (Ephrin type-A receptor 4) is reported as 1.2 µM (active). For the same molecule, the AC50 (ORF 73) was 47.3 µM (active), the EC50 [3] was 5.8 µM (active) and the EC50 [4] was 0.6 µM (active). For the same molecule, the EC50 [5] was 5.3 µM (active) and the EC50 (Lethal factor) was 1.6 µM (active).

In the case of `O=C(COc1ccccc1F)Nc1nnc(-c2ccc3c(c2)OCO3)o1`, the EC50 [6] is reported as 10 µM (active).

With `COc1ccc(N2CCN(CCCCNC(=O)Cn3c(=O)c4cccn4c4c(C)ccnc43)CC2)cc1` the IC50 (Mu-type opioid receptor) was > 32 µM (inactive), the IC50 [7] was 1.59 µM (active) and the IC50 [8] was 0.907 µM (active). The IC50 [9] was > 32 µM (inactive) and the IC50 [10] was 0.00521 µM (active).

For `COc1ccccc1C1CC(=O)Nc2cc3c(cc21)OCCO3` (stereo unspecified), the EC50 [11] was 7.13 µM (inconclusive), the EC50 [12] was 2.17 µM (active) and the EC50 (BJ [13]) was 7.46 µM (active). For the same molecule, the EC50 (cells [14]) was > 12 µM (not active), the EC50 [15] was < 0.1 µM (active) and the EC50 (BJ [16]) was 19.4 µM (active). For the same molecule, the IC50 (J774.A1) was > 25 µM (inactive), the EC50 (BJ [17]) was 1.4 µM (inconclusive) and the EC50 [18] was 2 µM (active). The EC50 [19] was > 12 µM (not active).

For `CCOc1ccc(N2C(=O)NC(=O)/C(=C\c3cc(OC)c(OC)cc3[N+](=O)[O-])C2=O)cc1`, the IC50 [20] was 2.8 µM (active), the IC50 (Perilipin-1/ABHD5) was 2.21 µM (active) and the IC50 (Genome polyprotein) was 27.6 µM (active).

In the case of `Cc1cc(NCc2ccccn2)n2nc(C)c(-c3ccc(Cl)cc3)c2n1`, the EC50 [21] is reported as 2.89 µM (active), the EC50 (Streptococcus) is reported as 6.9 µM (active) and the CC50 [22] is reported as 6.61 µM (active). For the same molecule, the AC50 [23] was 3.86 µM (active), the CC50 [24] was 3.6 µM (active) and the IC50 [25] was > 66.6 µM (inactive). The IC50 (Beta-galactosidase) was > 66.6 µM (inactive), the CC50 [26] was 15.1 µM (active) and the IC50 (cells [27]) was 2.1 µM (active).
